From PMC3685178 (Chemical communications (Cambridge, England), 2013)

System: MCF-7 tumour cells
Format: cell-based, human
Details: MCF-7, 50 nM, 48 h exposure; cells larger in size, characteristic of G2-M arrest

CC(=O)O[C@H]1C(=O)[C@@]2(C)[C@H]([C@H](OC(=O)c3ccccc3)[C@]3(O)C[C@H](OC(=O)[C@H](O)[C@@H](NC(=O)c4ccccc4)c4ccccc4)C(C)=C1C3(C)C)[C@]1(OC(C)=O)CO[C@@H]1C[C@@H]2O [PTX, paclitaxel]
cell populations in live/dead assay: significantly reduced
